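Exposure lasted 48 hours, with cells grown in 96-well plates and compounds tested at five concentrations. GI50 marks 50% less growth. TGI denotes the concentration required for complete inhibition of growth.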
How the values were obtained:
Experiment in all cases: NCI tumour cell line growth inhibition, 48 h
[1] = test system: CAKI-1 renal
[2] = test system: M19-MEL melanoma
[3] = test system: HL-60(TB) leukemia
[4] = test system: LXFL 529 NSCLC
[5] = test system: 786-0 renal
[6] = test system: OVCAR-4 ovarian
[7] = test system: TK-10 renal
[8] = test system: MALME-3M melanoma
[9] = test system: OVCAR-8 ovarian
[10] = test system: K-562 leukemia
[11] = test system: SW-620 colon
[12] = test system: DLD-1 colon
[13] = test system: SR leukemia
[14] = test system: SK-MEL-2 melanoma
[15] = test system: XF 498 CNS
[16] = test system: SF-268 CNS
[17] = test system: EKVX NSCLC
[18] = test system: OVCAR-3 ovarian
[19] = test system: SK-OV-3 ovarian
[20] = test system: COLO 205 colon
[21] = test system: SNB-75 CNS
[22] = test system: SNB-78 CNS
[23] = test system: OVCAR-5 ovarian
[24] = test system: LOX IMVI melanoma
[25] = test system: SK-MEL-5 melanoma
[26] = test system: CCRF-CEM leukemia
[27] = test system: MOLT-4 leukemia
[28] = test system: RPMI-8226 leukemia
[29] = test system: NCI-H460 lung
[30] = test system: DMS 114 small cell lung
[31] = test system: SN12C renal
[32] = test system: HOP-92 NSCLC
[33] = test system: HOP-62 NSCLC
[34] = test system: UO-31 renal
[35] = test system: HCT-15 colon
[36] = test system: M14 melanoma
[37] = test system: IGROV1 ovarian
[38] = test system: NCI-H23 lung
[39] = test system: HCT-116 colon
[40] = test system: SK-MEL-28 melanoma
[41] = test system: NCI-H522 lung
[42] = test system: KM12 colon
[43] = test system: UACC-62 melanoma
[44] = test system: HT29 colon
[45] = test system: A549 NSCLC
[46] = test system: UACC-257 melanoma
[47] = test system: ACHN renal
[48] = test system: SF-295 CNS
[49] = test system: U251 CNS
[50] = test system: KM20L2 colon
[51] = test system: SNB-19 CNS

CCC[CH2][Sn]([Cl])([CH2]CCC)[CH2]CCC
GI50 [1]: 167 nM | TGI [1]: 1230 nM | GI50 [2]: 110 nM | TGI [2]: 236 nM | GI50 [3]: 121 nM | TGI [3]: 351 nM | GI50 [4]: 64.5 nM | TGI [4]: 202 nM | GI50 [5]: 87 nM | TGI [5]: 210 nM | GI50 [6]: 99.8 nM | TGI [6]: 242 nM | GI50 [7]: 129 nM | TGI [7]: 261 nM | GI50 [8]: 123 nM | TGI [8]: 265 nM | GI50 [9]: 145 nM | TGI [9]: 287 nM | GI50 [10]: 41.1 nM | TGI [10]: 204 nM | GI50 [11]: 125 nM | TGI [11]: 273 nM | GI50 [12]: 85.3 nM | TGI [12]: 1020 nM | GI50 [13]: 66 nM | TGI [13]: 596 nM | GI50 [14]: 112 nM | TGI [14]: 240 nM | GI50 [15]: 59.9 nM | TGI [15]: 202 nM | GI50 [16]: 148 nM | TGI [16]: 314 nM | GI50 [17]: 56.4 nM | TGI [17]: 364 nM | GI50 [18]: 142 nM | TGI [18]: 312 nM | GI50 [19]: 181 nM | TGI [19]: 560 nM | GI50 [20]: 134 nM | TGI [20]: 278 nM | GI50 [21]: 111 nM | TGI [21]: 354 nM | GI50 [22]: 129 nM | TGI [22]: 313 nM | GI50 [23]: 117 nM | TGI [23]: 248 nM | GI50 [24]: 109 nM | TGI [24]: 234 nM | GI50 [25]: 192 nM | TGI [25]: 808 nM | GI50 [26]: 28.8 nM | TGI [26]: 225 nM | GI50 [27]: 52.2 nM | TGI [27]: 632 nM | GI50 [28]: 17.1 nM | TGI [28]: 168 nM | GI50 [29]: 130 nM | TGI [29]: 298 nM | GI50 [30]: 68 nM | TGI [30]: 225 nM | GI50 [31]: 119 nM | TGI [31]: 254 nM | GI50 [32]: 45.2 nM | TGI [32]: 188 nM | GI50 [33]: 271 nM | TGI [33]: 1130 nM | GI50 [34]: 160 nM | TGI [34]: 312 nM | GI50 [35]: 100 nM | TGI [35]: 242 nM | GI50 [36]: 162 nM | TGI [36]: 308 nM | GI50 [37]: 169 nM | TGI [37]: 625 nM | GI50 [38]: 55.2 nM | TGI [38]: 211 nM | GI50 [39]: 56.9 nM | TGI [39]: 188 nM | GI50 [40]: 139 nM | TGI [40]: 269 nM | GI50 [41]: 116 nM | TGI [41]: 270 nM | GI50 [42]: 123 nM | TGI [42]: 264 nM | GI50 [43]: 135 nM | TGI [43]: 373 nM | GI50 [44]: 39.6 nM | TGI [44]: 143 nM | GI50 [45]: 132 nM | TGI [45]: 320 nM | GI50 [46]: 108 nM | TGI [46]: 248 nM | GI50 [47]: 144 nM | TGI [47]: 276 nM | GI50 [48]: 120 nM | TGI [48]: 245 nM | GI50 [49]: 113 nM | TGI [49]: 236 nM | GI50 [50]: 136 nM | TGI [50]: 295 nM | GI50 [51]: 174 nM | TGI [51]: 346 nM

Reference: PubChem BioAssay (NCI)
